Assay results published in the supplement of paper PMC11414989.

Experiments:
Details in all cases: exposure window: 6 hpf to 120 hpf, static, assay age: 120 hpf (5 dpf)
[1] = tested on: Danio rerio larvae (Tropical 5D); test: mean distance moved of exposed larvae, light phase (µm per frame (1/25 s)); higher = more movement
Procedure: (§1)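 Larval photomotor response in Tropical 5D wild-type zebrafish. Larvae were statically exposed to each chemical from 6 hpf to 5 dpf in 96-well plates; morphologically abnormal larvae were excluded. At 120 hpf, larvae were tracked with Ethovision XT (25 frames/s) over the 2nd cycle of 3 min light and 3 min dark. Values are the mean movement metric of exposed larvae per phase; same-plate control means (plate-dependent baseline) are given as conditions.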

[2] = tested on: Danio rerio larvae (Tropical 5D); test: mean angular velocity of exposed larvae, light phase (angular velocity (unit not stated)); higher = more movement
Procedure: as §1

[3] = tested on: Danio rerio larvae (Tropical 5D); test: mean angular velocity of exposed larvae, dark phase (angular velocity (unit not stated)); higher = more movement
Procedure: as §1

[4] = tested on: Danio rerio larvae (Tropical 5D); test: mean distance moved of exposed larvae, dark phase (µm per frame (1/25 s)); higher = more movement
Procedure: as §1

c1ccc2c(c1)c1cccc3c4ccccc4c4cccc2c4c13 [Dibenzo[e-l]pyrene]
Details | mean angular velocity of exposed larvae, [2] | mean angular velocity of exposed larvae, [3] | mean distance moved of exposed larvae, [1] | mean distance moved of exposed larvae, [4]
0.01 µM | 0.217 | 0.665 | 7.75 | 23.6
0.025 µM | 0.129 | 0.598 | 6.96 | 22.4
0.065 µM | 0.194 | 0.644 | 6.48 | 24.7
0.164 µM | 0.187 | 0.681 | 8.06 | 22.8
0.35 µM | 0.147 | 0.693 | 7.37 | 25.3
0.75 µM | 0.138 | 0.704 | 6.8 | 26.3
1 µM | 0.119 | 0.415 | 4.47 | 13.5
2.54 µM | 0.113 | 0.428 | 2.56 | 10.8
6.45 µM | 0.0734 | 0.349 | 1.7 | 9.33
16.4 µM | 0.0678 | 0.245 | 1.99 | 8.16
35 µM | 0.0716 | 0.503 | 1.66 | 12
74.8 µM | 0.0555 | 0.384 | 1.63 | 9.85
100 µM | 0.0996 | 0.353 | 3.03 | 9.64

CCN(CC(=O)O)S(=O)(=O)C(F)(F)C(F)(F)C(F)(F)C(F)(F)C(F)(F)C(F)(F)C(F)(F)C(F)(F)F [N-ethylperfluoro-1-octanesulfonamidoacetic acid]
0.25 µM
Details | mean angular velocity of exposed larvae | mean distance moved of exposed larvae
[1] | – | 1.44
[2] | 0.0592 | –
[3] | 0.335 | –
[4] | – | 8.83
